# Experimental data taken from patent EP3146981A1, “COVALENTLY ATTACHED AZOBENZENE SWITCHES AND THEIR USES FOR THE OPTICAL CONTROL OF TARGET PROTEINS” (Ludwig-Maximilians-Universität München, priority 2015, dated 2017).
# Read-outs that look alike come from different tables or passages of the source.
# Key:
# SNAP-tag = assay: In vitro SNAP-tag labeling, SDS page
# Method: Scale bars represents 50 µM (top) and 10 µM (bottom). • Figure 9: SDS page after in vitro SNAP-tag labeling (New England Biolabs, #P9312S) with BGAG12 and D-MAG. Reductive (dithiothreitol, DTT), oxidative (oxidized glutathione, GSSG) or neutral conditions (no additive) were employed according to the manufacturer's instructions.
# wild type mGluR2 = wild type mGluR2 (Rattus norvegicus, UniProt P31421); settings: cells expressing wild type mGluR2 (no SNAP tag) incubated with BGAG12
# Sequence of wild type mGluR2 (P31421 19-872): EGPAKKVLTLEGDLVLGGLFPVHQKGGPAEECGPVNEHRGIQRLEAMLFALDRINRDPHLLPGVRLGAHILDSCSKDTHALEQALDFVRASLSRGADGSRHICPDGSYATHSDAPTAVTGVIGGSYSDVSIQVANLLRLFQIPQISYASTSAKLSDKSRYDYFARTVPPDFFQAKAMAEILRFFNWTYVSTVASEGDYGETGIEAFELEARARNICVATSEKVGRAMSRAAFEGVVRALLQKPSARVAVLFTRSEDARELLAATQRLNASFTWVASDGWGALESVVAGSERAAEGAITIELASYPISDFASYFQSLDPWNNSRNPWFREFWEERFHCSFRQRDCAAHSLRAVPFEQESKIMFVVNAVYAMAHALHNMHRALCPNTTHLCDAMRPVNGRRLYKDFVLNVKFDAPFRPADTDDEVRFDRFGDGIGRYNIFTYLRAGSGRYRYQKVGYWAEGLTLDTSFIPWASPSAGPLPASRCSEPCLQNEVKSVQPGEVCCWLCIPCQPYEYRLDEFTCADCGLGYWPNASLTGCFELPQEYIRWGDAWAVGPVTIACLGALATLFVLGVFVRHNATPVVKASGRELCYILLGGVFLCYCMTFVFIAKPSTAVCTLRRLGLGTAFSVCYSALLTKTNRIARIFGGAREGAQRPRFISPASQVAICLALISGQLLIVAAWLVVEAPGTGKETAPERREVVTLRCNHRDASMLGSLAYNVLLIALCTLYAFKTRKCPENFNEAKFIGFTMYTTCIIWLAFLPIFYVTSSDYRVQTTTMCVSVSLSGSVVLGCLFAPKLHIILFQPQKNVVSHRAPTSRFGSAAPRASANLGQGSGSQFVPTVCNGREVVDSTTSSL
# [1] = system: SNAP-mGluR2 in hippocampal neurons; assay: Whole cell patch-clamp of hippocampal neurons, excitability; format: cell-based, mice
# Method: Dissociated hippocampal neuron cultures were prepared from postnatal P0 or P1 mice on 12 mm glass coverslips as previously described (Levitz et al., 2013). Neurons were transfected with SNAP-mGluR2 (1.5 µg/well) and tdTomato (0.25 µg/well as a transfection marker) using the calcium phosphate method at DIV9. Whole cell patch clamp experiments were performed 3-6 days after transfection (DIV 12-15). Labeling was performed using the same protocol as HEK cells except BGAG was diluted in extracellular recording solution containing (in mM): 138 NaCl, 1.5 KCl, 1.2 MgCl2, 2.5 CaCl2, 10 glucose, 5 HEPES, pH 7.4. Glass pipettes of resistance 4-8 MΩ were filled with an intracellular solution containing (in mM): 140 K-gluconate, 10 NaCl, 5 EGTA, 2 MgCl2, 1 CaCl2, 10 HEPES, 2 MgATP and 0.3 Na2GTP, pH 7.2. Autaptic neurons were voltage clamped at -60 mV and a 2-3 ms voltage step to +20 mV was used to evoke a spike followed (~3-5 ms later) by an EPSC. Stimulation was performed once every 12 s to prevent rundown.
# We first expressed SNAP-mGluR2-GFP in dissociated hippocampal neurons and labeled with BG-Alexa-647 to determine if SNAP-BG conjugation could occur efficiently in neuronal cultures, which are considerably denser than HEK 293T cell cultures. […]
# [2] = Stability of the labeling solution in aqueous buffer (readout: photoactivation of SNAG-mGluR2); format: physicochemical; settings: one week following dilution in aqueous buffer at room temperature
# [3] = reductive (DTT), oxidative (GSSG) or neutral conditions
compound,measurement,setting,value
"COCCOCCOCCOCCOCCOCCOCCOCCOCCOCCOCCOCCC(=O)NCC(=O)Nc1ccc(/N=N/c2ccc(NC(=O)CCC[C@@H](C[C@H](N)C(=O)O)C(=O)O)cc2)cc1 [AG12, (2S,4S)-2-Amino-4-(4-oxo-4-((4-((E)-(4-(38-oxo-2,5,8,11,14,17,20,23,26,29,32,35-dodecaoxa-39-azahentetracontan-41-amido)phenyl)diazenyl)phenyl)amino)butyl)-pentanedioic acid]","photoagonism of SNAP-mGluR2, directionality",SNAP-mGluR2; PCL version where the BG group was omitted,same directionality as BGAG12
"Nc1nc(OCc2ccc(CNC(=O)CCC(=O)N3Cc4ccccc4-c4c(nnn4CCOCCOCCOCCOCCOCCOCCOCCOCCOCCOCCOCCOCCC(=O)NCCNc4ccc(/N=N/c5ccc(NC(=O)CCC[C@@H](C[C@H](N)C(=O)O)C(=O)O)cc5)cc4)-c4ccccc43)cc2)c2nc[nH]c2n1 [BGAG12(460), (2S,4S)-2-amino-4-(4-((4-((E)-(4-((1-(8-(4-((4-(((2-amino-9H-purin-6-yl)oxy)methyl)-benzyl)amino)-4-oxobutanoyl)-8,9-dihydro-1H-dibenzo[b,f][1,2,3]triazolo[4,5-d]azo-cin-1-yl)-39-oxo-3,6,9,12,15,18,21,24,27,30,33,36-dodecaoxa-40-azadotetra-contan-42-yl)amino)phenyl)diazenyl)phenyl)amino)-4-oxobutyl)pentanedioic acid]",Relaxation following illumination,SNAP-mGluR2; in the dark after blue light,rapidly in the dark
same,photoactivation relative to saturating glutamate,"SNAP-mGluR2; labeling with 10 µM, blue light (420-470 nm bandpass), n=18 cells",34.9 ± 4.2%
"Nc1nc(OCc2ccc(CNC(=O)CCc3cn(CCOCCOCCOCCOCCOCCOCCOCCOCCOCCOCCOCCOCCC(=O)NCC(=O)Nc4ccc(/N=N/c5ccc(NC(=O)CCC[C@@H](C[C@H](N)C(=O)O)C(=O)O)cc5)cc4)nn3)cc2)c2nc[nH]c2n1 [BGAG12, (2S,4S)-2-Amino-4-(4-((4-((E)-(4-(1-(4-(3-((4-(((2-amino-9H-purin-6-yl)oxy)methyl)benzyl)amino)-3-oxopropyl)-1H-1,2,3-triazol-1-yl)-39-oxo-3,6,9,12,15,18,21,24,27,30,33,36-dodecaoxa-40-azadotetracontan-42-amido)phenyl)diazenyl)phenyl)amino)-4-oxobutyl)pentanedioic acid]",reaction with SNAP-tag,SNAP-tag; [3],reacts with SNAP-tag under each condition
same,light responses,wild type mGluR2,no light responses
same,membrane hyperpolarization,"[1]; illumination at 380 nm, reversed at 500 nm",2-8 mV
same,effect of light-induced hyperpolarization on firing,[1]; neurons at depolarized potentials that induced firing,sufficient to inhibit the action potentials
same,photocurrents,SNAP-mGluR2; 100 nM labeling for 45 minutes,photocurrents were still observed
same,Light responses relative to the responses to saturating glutamate,"SNAP-mGluR2; 10 µM for 45 minutes at 37 °C, washed, 380 nm, n=10 cells",59.3 ± 2.8%
same,concentration showing optimal labeling,SNAP-mGluR2; 45 minute incubation,≥ 1 µM
same,lowest concentration at which photocurrents were observed,SNAP-mGluR2; overnight labeling,10 nM
same,photocurrents,"SNAP-mGluR2; overnight labeling at 100 nM, versus 45 minutes",increased
same,efficacy of optical activation on reuse of the labeling solution,[2],without a decline in efficacy of optical activation
D-Maleimide-Azobenzene Glutamate [D-MAG],reaction with SNAP-tag,SNAP-tag; [3],reacts only under oxidative and neutral conditions
same,reaction with SNAP-tag,SNAP-tag; reductive conditions (DTT),unreactive towards the SNAP-tag under reductive conditions
